Measured values: patent US20110269716A1, “ANTIOXIDANT COMPOUNDS AND METHODS OF THEIR USE” (priority 2008, published 2011)

Legend:
PC-3 cells = experiment: Biostability: EPR of conditioned media after exposure to cells; type: in vitro ADME; settings: after 96 hours of exposure to PC-3 cells vs media without cells
Protocol: PC-3 cells were seeded in tissue culture flasks (surface area ˜80 cm2). The cells were allowed to attach overnight. Following this, the cells were then treated with the desired concentration of CTMIO or DCTEIO (Compound 1) or vehicle (DMSO alone) i.e. 12 mL of media containing different nitroxide or vehicle was added to each flask. 5 mL of conditioned media (i.e. treatment media that had been incubated with the cells) were removed at 24 h and 96 h. At the 96 h time point, cells in the tissue culture flask were ˜100% confluent (i.e. the surface of the flask was covered by a monolayer of cells). The conditioned media that was removed from the flasks was placed in a falcon and centrifuged at 4° C. to remove any cellular debris that might have been present. The supernatant was then transferred to a new tube and the lid parafilmed to make it as airtight as possible. The tubes of conditioned media were stored at −20° C. until Electron Paramagnetic Resonance (EPR) analysis. […] The samples were run at X-band on a Bruker ELEXSYS E 580 FT/CW X-Band spectrometer at room temperature.

[1] = Log P by shake flask method (octanol/water, UV/vis at 230 nm); type: physicochemical
Protocol: The solubility and permeability of CTMIO and DCTEIO (Compound 1) were assessed using the shake flask method and UV/vis spectroscopy to measure distribution of the solute as follows:
A sample of octanol containing DCTEIO (3.34 mg, 1 mM) was added to a separating funnel with 10 mL water. The separating funnel was shaken for 5 minutes and the mixture was allowed to separate for 16 hours. Each phase (0.5 mL) was diluted with 5 mL of like solvent, water phase diluted with water and n-octanol phase diluted with n-octanol. This protocol was repeated for CTMIO. The absorbance of each sample was measured by UV/vis spectroscopy at 230 nm. The Log P value was calculated by the following equation: […]

[2] = tested on: cells affected with Ataxia Telangiectasia (A-T); settings: Hosokawa et al. 2004; cited from earlier work
A-T cell line KT = experiment: A-T cell survival assay (irradiated cells, Trypan blue count); type: cell-based, human; settings: 100 μM nitroxide, at least six hours before irradiation at 4 Gy, counted every 24 hours for 4 days
Protocol: Lymphoblastoid Cell Lines (LCL) of A-T cells and standard cells were used, which were incubated and cultured in the standard conditions. The cell lines of both A-T cells and standard cells were initially divided into four batches, the first batch was not irradiated and not exposed to nitroxide, second batch was irradiated in the absence of nitroxide, the third batch was not irradiated but was exposed to the nitroxide, and the last batch was irradiated in the presence of the nitroxide. All four aliquots were taken from the cultured medium and counted to ensure consistent numbers of cells were present in each aliquot used in the assay. In some experiments comparative experiments were performed with the known nitroxide antioxidant CTMIO. Cells that were treated by the nitroxide studied were exposed for at least six hours prior to the irradiation at the lethal dose of 4 Gy. After dilution, the final concentrations of the nitroxides were made to be 100 μM. Previous experiments have shown that nitroxides generally have minimal toxicity at the concentration of 100 μM, but to confirm this, cell growth was monitored in the presence of the nitroxides but without exposure to irradiation. From this it was evident that there was no significant cytotoxicity with any of the compounds studied.
The concentrations of the cell cultures were monitored every 24 hours after irradiation, for four days. This was conducted via a Trypan blue based assay using a bright-line hemacytometer and an optical microscope. Trypan blue solution enables the discrimination of live cells from dead cells, as the dye is completely absorbed by dead cells, but not by live cells. Under a bright-line hemacytometer, a glass slide specially designed to determine cell concentrations, the blue dead cells fade into the background, enabling the selective count of live cells under an optical microscope. […]
Cell survivability was determined by the ratio of cells irradiated to the cells without irradiation. […] Errors were calculated with 95% confidence intervals. […]

Structure (SMILES)	EPR signal strength of the nitroxide (metabolic conversion to the non-radical hydroxylamine) (PC-3 cells)	Log P [1]	protective effect on radiation-induced oxidative stress [2]	survival of KT cells in the presence of irradiation (A-T cell line KT)	logP ([1]; n-octanol/water, shake flask, 1 mM)
CC1(C)c2ccc(C(=O)O)cc2C(C)(C)N1[O] [CTMIO, 5-carboxy-1,1,3,3-tetramethyl-isoindolin-2-yloxyl, reference compound]	significant reduction in signal strength	−0.47	protective effect		
CCC1(CC)c2cc(CO)c(CO)cc2C(CC)(CC)N1[O] [Compound (2), 5,6-Dihydroxymethyl-1,1,3,3-tetraethylisoindolin-2-yloxyl]				improves survival of KT cells	
CCC1(CC)c2cc(C(=O)O)c(C(=O)O)cc2C(CC)(CC)N1[O] [Compound (1), 1,1,3,3-Tetraethyl-5,6-dicarboxylisondoline-2-yloxyl]	same signal strength			improves survival of KT cells	0.57
CCC1(CC)c2cc(CP(=O)(O)O)c(CP(=O)(O)O)cc2C(CC)(CC)N1[O] [Compound (3), 5,6-Bis(methylene)diphosphonic acid-1,1,3,3-tetraethylisoindolin-2-yloxyl]				improves survival of KT cells	
